Experimental data reported in PubChem BioAssay AID1159586 (Gregory J. Crowther, 2016).

Biological target: Plasmodium falciparum protein kinase 6 (PK6, PF3D7_1337100) (UniProt Q8IDW1)
Experiment: PfPK6 kinase inhibitors, biochemical, TCAMS library (AID 1159586)
Settings: recombinant PfPK6, Kinase-Glo ATP depletion luminescence

Sequence of Plasmodium falciparum protein kinase 6 (PK6, PF3D7_1337100) (Q8IDW1 1-305): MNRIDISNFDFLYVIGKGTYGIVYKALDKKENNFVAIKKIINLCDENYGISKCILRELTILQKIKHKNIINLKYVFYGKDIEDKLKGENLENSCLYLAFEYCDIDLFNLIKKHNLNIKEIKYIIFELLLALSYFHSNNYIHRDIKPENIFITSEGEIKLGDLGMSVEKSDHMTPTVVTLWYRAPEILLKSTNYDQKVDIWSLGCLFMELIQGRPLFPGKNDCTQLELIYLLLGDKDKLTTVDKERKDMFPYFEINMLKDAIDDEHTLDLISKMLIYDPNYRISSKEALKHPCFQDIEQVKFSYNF

SMILES | IC50 [nM]
Cc1ccc(Nc2ccnc(Nc3ccc4c(c3)CS(=O)(=O)C4)n2)cc1O | 122
CCN(CC)CCCNc1nccc(N(C)c2ccc(NC(=O)Nc3cc(C(F)(F)F)ccc3F)cc2)n1 | 705
COc1cccc(-n2ncc3c(N/N=C/c4ccc(CN(C)CCN(C)C)cc4)ncnc32)c1 | 58
Cn1cc(-c2ccnc3[nH]c(-c4cccc(CNC5CCC(O)CC5)c4)cc23)cn1 (centres undefined) | 177
CN1CCC(NC(=O)c2cccc(Nc3cc(Nc4cccc(Br)c4)ncn3)c2)CC1 | 602
COc1ccc(Nc2ncc(C#N)c(Nc3ccccc3C(N)=O)n2)cc1N1CCN(C)CC1 | 61
COc1ccc(Nc2ncc(OC)c(Nc3ccccc3C(N)=O)n2)cc1N1CCN(C)CC1 | 270
CN1CCN(c2ccc(Nc3ncc(C#N)c(Nc4ccccc4C(N)=O)n3)cc2)CC1 | 89
NC(=O)c1ccccc1Nc1nc(Nc2cccc(N3CCN(CCO)CC3)c2)ncc1Cl | 80
N#Cc1cnc(Nc2ccc(Oc3ccccc3)cc2)nc1Nc1cccc(S(N)(=O)=O)c1 | 201
Cc1cc(Nc2nc(Nc3cccc(Cl)c3)nc3ccccc23)n[nH]1 | 151
Cc1cc(Nc2ncc(Cl)c(Nc3ccccc3C(N)=O)n2)n[nH]1 | 129
Cc1cc(Nc2ncc(C#N)c(Nc3ccccc3C(N)=O)n2)ccc1N1CCN(C)CC1 | 54
CCNC(=O)Nc1ccc(N(C)c2ccnc(Nc3ccc(CS(C)(=O)=O)cc3)n2)cc1 | 269
N=C(N)c1ccc(Nc2nc(Nc3ccc(-c4ccccc4)cc3)ncc2[N+](=O)[O-])cc1 | 164
CNC(=O)c1ccccc1Nc1nc(Nc2cccc(CS(C)(=O)=O)c2)ncc1C | 133
CN(C)CC(O)COc1ccc(Nc2ncc([N+](=O)[O-])c(Nc3ccccc3O)n2)cc1 (centres undefined) | 67
N=C(N)c1ccc(Nc2nccc(Nc3nc(-c4ccccc4)cs3)n2)cc1 | 413
CN(C)Cc1cccc(-c2cc3c(-c4cnn(C)c4)c(Cl)cnc3[nH]2)c1 | 128
CCN(CC)CCNc1nccc(N(C)c2ccc(NC(=O)Nc3cc(C(F)(F)F)ccc3F)cc2)n1 | 917
C(=N\Nc1nccc2sc(-c3ccccc3)cc12)/c1cccnc1 | 278

SMILES | IC50 [nM]
NS(=O)(=O)c1cccc(Nc2nccc(-c3cnn4ncccc34)n2)c1 | 246
CC(=O)c1ccc(NC(=O)Nc2ccc(N(C)c3ccnc(Nc4cccc(CS(C)(=O)=O)c4)n3)cc2)cc1 | 138
COc1c(CN2CCCC2)cccc1-c1cc2c(-c3ccc(C(=O)O)c(C(C)C)c3)ccnc2[nH]1 | 541
CC(=O)Nc1ccc(Nc2ncc([N+](=O)[O-])c(Nc3ccccc3C(N)=O)n2)cc1 | 128
Nc1ncc(-c2cccc(F)c2)cc1-c1nc2ccc(F)cc2[nH]1 | 206
Cn1cnc2c(Nc3ccncc3)nc(-c3ccc4c(c3)OCO4)nc21 | 500
CNC(=O)c1ccccc1Nc1nc(Nc2ccc(CCN3CCN(C)CC3)cc2)ncc1Cl | 70
CCN(CC)CCNC(=O)c1ccc(Nc2ncc([N+](=O)[O-])c(Nc3ccccc3OC)n2)cc1 | 110
CS(=O)(=O)Cc1ccc(Nc2ncc(Cl)c(Nc3cccnc3C(N)=O)n2)cc1 | 691
CN(c1ccc(NC(=O)Nc2cccc(Cl)c2)cc1)c1ccnc(N)n1 | 402
Cc1ccc(S(=O)(=O)Nc2ccc(Nc3nccc(Nc4cccc5[nH]ncc45)n3)cc2)cc1 | 823
CCN(CC)CCOc1ccc(Nc2ncc3cc(-c4c(Cl)cccc4Cl)c(=O)n(C)c3n2)cc1 | 350
COc1ccc(Nc2ncc(Cl)c(Nc3cccnc3C(N)=O)n2)cc1N1CCN(C)CC1 | 86
NCCNS(=O)(=O)c1ccc(-c2ccnc3[nH]c(-c4ccncc4)cc23)cc1 | 207
CC(=O)Nc1nc(C)c(-c2csc(Nc3ccc(Cl)cc3)n2)s1 | 95
CNC(=O)c1ccccc1Nc1nc(Nc2ccc(N3CCN(C)CC3)nc2)ncc1C | 143
O=c1[nH]ccc2nc(N[C@@H]3CCCNC3)nc(Nc3ccc(S(=O)(=O)N4CCOCC4)cc3)c12 | 115
CS(=O)(=O)Cc1cccc(Nc2ncc(Cl)c(Nc3cccnc3C(N)=O)n2)c1 | 74
Nc1ncnc2occ(-c3ccc(NC(=O)Nc4cc(C(F)(F)F)ccc4F)cc3)c12 | 335
NCCNC(=O)c1ccc(-c2cnc3[nH]cc(-c4ccc(C(N)=O)cc4)c3c2)cc1 | 931

Now from value to compound:

IC50 [nM] | SMILES
695 | COc1c(CN2CCOCC2)cccc1-c1cc2c(-c3ccc(C(=O)O)c(C(C)C)c3)ccnc2[nH]1
144 | CC(=O)Nc1cccc(Nc2nccc(-c3c(-c4cccc(NC(=O)c5c(F)cccc5F)c4)nn4ncccc34)n2)c1
139 | CS(=O)(=O)Cc1ccc(Nc2nccc(-c3c(-c4cccc(NC(=O)C5CCCCC5)c4)nn4ncccc34)n2)cc1
464 | CN(c1ccc2c(c1)nc(NCc1ccccc1)n2C)c1ccnc(Nc2ccc(CS(C)(=O)=O)cc2)n1
167 | O=C(Cc1ccc(Nc2nccc(Nc3cccc4[nH]ncc34)n2)cc1)Nc1ccc(C(F)(F)F)cc1
42 | CNC(=O)c1ccccc1Nc1nc(Nc2ccc(N3CCOCC3)cc2)ncc1Cl
520 | CN(c1ccc(NC(=O)Nc2cc(C(F)(F)F)ccc2F)cc1)c1ccnc(NCCN2CCOCC2)n1
140 | NS(=O)(=O)c1ccc(Nc2nccc(-c3c(-c4cccc(NC(=O)c5c(F)cccc5F)c4)nn4ccccc34)n2)cc1
375 | CN(c1ccc(NC(=O)Nc2cc(C(C)(C)C)on2)cc1)c1ccnc(NCCN2CCOCC2)n1
580 | O=C(Nc1cccc(-c2nn3ccccc3c2-c2ccnc(Nc3ccc(NCCCN4CCOCC4)c(F)c3)n2)c1)c1c(F)cccc1F
145 | Cn1c(=O)c(-c2c(Cl)cccc2Cl)cc2cnc(Nc3ccc(N4CCOCC4)cc3)nc21
375 | CC(c1cccc(Nc2nccc(-c3c(-c4cccc(NC(=O)c5c(F)cccc5F)c4)nn4ncccc34)n2)c1)S(C)(=O)=O (centres undefined)
105 | CS(=O)(=O)Cc1ccc(Nc2nccc(-c3c(-c4cccc(C(=O)Nc5c(F)cccc5F)c4)nn4ccccc34)n2)cc1
860 | Cn1nc(-c2ccc(NC(=O)Nc3ccc4ccccc4c3)c(F)c2)c2cnc(NCCN3CCOCC3)nc21
179 | CN1CCN(c2ccc(Nc3nccc(-c4cnn5ncccc45)n3)cc2Cl)CC1
229 | Cc1ccc(Nc2nc3cc(Nc4ccnc(Nc5cccc(CS(C)(=O)=O)c5)n4)ccc3o2)cc1
181 | C#CCNC(=O)c1ccc(-c2ccnc(Nc3cccc(CCCN4CCOCC4)c3)n2)s1
385 | CS(=O)(=O)Cc1ccc(Nc2nccc(N3CCCc4cc(NC(=O)Nc5cccc(C(F)(F)F)c5)ccc43)n2)cc1
844 | CN(c1ccc2c(c1)nc(NCc1ccc(F)cc1)n2C)c1ccnc(Nc2ccc(CS(C)(=O)=O)cc2)n1
276 | CS(=O)(=O)Cc1ccc(Nc2nccc(-c3c(-c4cccc(NC(=O)c5c(F)cccc5F)c4)nn4ccccc34)n2)cc1
445 | COc1ccc(Nc2ncc3c(-c4cccc(NC(=O)Cc5ccc(O)cc5)c4)c[nH]c3n2)cc1OC
302 | CCN(CC)CCCOc1ccc(Nc2nccc(-c3c(-c4cccc(NC(=O)c5c(F)cccc5F)c4)nn4ccccc34)n2)cc1F
265 | O=S1(=O)NCc2ccc(Nc3nccc(Nc4ccc5c(cnn5Cc5ccccc5)c4)n3)cc21
